# In publication PMC11649380 (Inorganic chemistry, 2022):
# Like-named read-outs stand apart in the source and are kept apart here.
# What was measured:
# [1] = Aquation kinetics of axial ligand dissociation by 1H NMR spectroscopy; assay type: physicochemical; conditions: for k1 × 10^5 (first aquation rate constant) / k2 × 10^4 (second aquation rate constant): 37 °C, pH 7.4 MOPS-buffered solution, 400 μM complex, 1H NMR; for half-life: mops buffer, pH 7.4
# [2] = target: T1, mitochondrial calcium uniporter (MCU) (Homo sapiens, UniProt Q8NE86); assay: Mitochondrial Ca2+ uptake inhibition in digitonin-permeabilized HEK293T cells; assay type: cell-based
# T1 sequence (Q8NE86 51-351): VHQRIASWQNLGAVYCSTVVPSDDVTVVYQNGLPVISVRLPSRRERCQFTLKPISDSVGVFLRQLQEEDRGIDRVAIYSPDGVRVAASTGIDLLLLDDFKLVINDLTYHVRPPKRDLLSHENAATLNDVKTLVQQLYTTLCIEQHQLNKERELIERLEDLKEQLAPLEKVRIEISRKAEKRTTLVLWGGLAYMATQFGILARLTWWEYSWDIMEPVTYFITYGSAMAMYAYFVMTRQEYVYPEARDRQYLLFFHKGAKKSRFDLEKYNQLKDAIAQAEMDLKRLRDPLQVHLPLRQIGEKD
# T1 sequence (Q9H4I9 48-107 partner limits assumed): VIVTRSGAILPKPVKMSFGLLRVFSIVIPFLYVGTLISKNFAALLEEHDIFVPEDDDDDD
# [3] = target: T2, organic cation transporter 3 (OCT3) (Homo sapiens, UniProt O75751); assay: Role of OCT3 in cellular uptake; assay type: cell-based; conditions: HeLa, 50 μM complex, 1 μM decynium-22, 3 h
# T2 sequence (O75751 1-556): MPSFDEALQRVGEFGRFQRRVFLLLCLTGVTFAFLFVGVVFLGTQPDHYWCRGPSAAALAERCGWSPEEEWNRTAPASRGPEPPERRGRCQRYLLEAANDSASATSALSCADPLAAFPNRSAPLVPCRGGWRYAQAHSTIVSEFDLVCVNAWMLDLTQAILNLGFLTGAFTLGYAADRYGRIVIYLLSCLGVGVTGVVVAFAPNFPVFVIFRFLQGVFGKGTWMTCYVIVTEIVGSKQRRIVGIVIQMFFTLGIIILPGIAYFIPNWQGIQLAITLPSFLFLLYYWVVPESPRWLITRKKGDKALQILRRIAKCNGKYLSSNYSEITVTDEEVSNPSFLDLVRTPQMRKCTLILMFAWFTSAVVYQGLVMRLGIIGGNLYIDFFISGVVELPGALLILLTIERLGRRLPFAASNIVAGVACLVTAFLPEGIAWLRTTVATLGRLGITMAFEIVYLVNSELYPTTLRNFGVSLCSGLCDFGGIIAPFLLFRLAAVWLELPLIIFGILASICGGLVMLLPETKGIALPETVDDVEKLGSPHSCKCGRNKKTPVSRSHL
# HeLa cells = assay: Cellular uptake by GFAAS in HeLa cells; assay type: cell-based; conditions: 50 μM for 2 h
# HEK293T cells = assay: Cellular uptake by GFAAS in HEK293T cells; assay type: cell-based; conditions: 50 μM for 2 h
# [4] = ref [51], cited from earlier work
# [5] = target: T1, mitochondrial calcium uniporter (MCU); conditions: read-out: IC50 of MCU-mediated mCa2+ uptake inhibition; permeabilized HEK293T cells (1 × 10^7 cells/mL); ref [46]; cited from earlier work
Compound,k1 × 10^5 (first aquation rate constant) [1],k2 × 10^4 (second aquation rate constant) [1],half-life [1],also measured
"N.N.N.N.N.N.N.N.O=C[O-].O=C[O-].[N-3].[Ru+4].[Ru+4] [Complex 1, [(HCO2)Ru(NH3)4(μ-N)Ru(NH3)4(O2CH)](NO3)3]",5.9 ± 0.2 s^−1,3.6 ± 0.3 s^−1,3.3 ± 0.1 h,–
"CC(=O)[O-].CC(=O)[O-].N.N.N.N.N.N.N.N.[N-3].[Ru+4].[Ru+4] [Complex 2, [(CH3CO2)Ru(NH3)4(μ-N)Ru(NH3)4(O2CCH3)](NO3)3]",2.0 ± 0.5 s^−1,3.0 ± 1.2 s^−1,9.9 ± 2.4 h,–
"CCC(=O)[O-].CCC(=O)[O-].N.N.N.N.N.N.N.N.[N-3].[Ru+4].[Ru+4] [Complex 3, [(CH3CH2CO2)Ru(NH3)4(μ-N)Ru(NH3)4(O2CCH2CH3)](NO3)3]",2.8 ± 0.1 s^−1,3.3 ± 0.5 s^−1,6.9 ± 0.2 h,–
"CCCC(=O)[O-].CCCC(=O)[O-].N.N.N.N.N.N.N.N.[N-3].[Ru+4].[Ru+4] [Complex 4, [(CH3(CH2)2CO2)Ru(NH3)4(μ-N)Ru(NH3)4(O2C(CH2)2CH3)](OSO2CF3)3]",3.2 ± 0.1 s^−1,2.8 ± 0.2 s^−1,5.9 ± 0.2 h,IC50 [2]: 18.7 ± 0.1 nM
"N.N.N.N.N.N.N.N.[Cl][Ru+3].[N-]=[Ru][Cl] [Ru265, [ClRu(NH3)4(μ-N)Ru(NH3)4Cl]Cl3]",–,–,–,"cellular uptake in the presence of the OCT3 inhibitor decynium-22 [3]: diminished in the presence of the OCT3 inhibitor; mCa2+ uptake at 1 μM ([2]; freshly prepared 1 μM solutions, permeabilized HEK293T cells): complete abrogation of mCa^2+ uptake; cellular uptake (intracellular Ru accumulation) (HeLa cells): taken up by both cell lines to a similar extent; cellular uptake (intracellular Ru accumulation) (HEK293T cells): taken up by both cell lines to a similar extent; t1/2 (1) (half-life of first aquation step) ([4]; 37 °C, UV-vis spectroscopy): 2.28 min; k1 × 10^5 (first aquation rate constant) ([4]; 37 °C, determined using UV-vis spectroscopy, first aquation step only): 49.2 s^−1; half-life of aquation of axial chloride ligands ([4]; same conditions (pH 7.4, 37 °C)): approximately 2 min"
"N.N.N.N.N.N.N.N.[Cl][Ru+3].[NH]=[Ru][Cl] [Ru265, [ClRu(NH3)4(μ-N)Ru(NH3)4Cl]Cl3]",–,–,–,IC50 [5]: 8.6 ± 2.2 nM
